In experiment [1] the test system is CFA-induced paw radiant heat hypersensitivity. In words: CFA-induced paw radiant heat hypersensitivity. The conditions noted are these: Rattus norvegicus, po, HPβCD; for inhibition in vivo at 10 mg/kg: 5 h, 10 mg/kg p.o., last time point 300 min; for inhibition in vivo at 30 mg/kg: 30 mg/kg p.o., last time point 180 or 300 min. It is filed as in vivo, rat. As to the method:
Each rat was placed in a test chamber on a warm glass surface and allowed to acclimate for approximately 10 min. A radiant thermal stimulus (beam of light) was then focused through the glass onto the plantar surface of each hind paw in turn. The thermal stimulus was automatically shut off by a photoelectric relay when the paw was moved or when the cut-off time was reached (20 sec for radiant heat at ˜5 amps). An initial (baseline) response latency to the thermal stimulus was recorded for each animal prior to the injection of complete Freund's adjuvant (CFA). […] Immediately following the post-CFA latency assessment, the indicated test compound or vehicle was administered orally.
The percent reversal (% R) of hypersensitivity was calculated in one of two different ways: 1) using group mean values or 2) using individual animal values. More specifically:
Method 2. For some compounds, the % R of hypersensitivity was calculated separately for each animal according to the following formula: % reversal=[(individual treatment response−individual CFA response)/(individual baseline response−individual CFA response)]×100. Results are given as a mean of the maximum % reversal values calculated for each individual animal.

Another experiment concerns the target T1, mutant MGL (Homo sapiens, UniProt Q99685, L169S/L176S).
T1 sequence (Q99685 1-303 L169S/L176S): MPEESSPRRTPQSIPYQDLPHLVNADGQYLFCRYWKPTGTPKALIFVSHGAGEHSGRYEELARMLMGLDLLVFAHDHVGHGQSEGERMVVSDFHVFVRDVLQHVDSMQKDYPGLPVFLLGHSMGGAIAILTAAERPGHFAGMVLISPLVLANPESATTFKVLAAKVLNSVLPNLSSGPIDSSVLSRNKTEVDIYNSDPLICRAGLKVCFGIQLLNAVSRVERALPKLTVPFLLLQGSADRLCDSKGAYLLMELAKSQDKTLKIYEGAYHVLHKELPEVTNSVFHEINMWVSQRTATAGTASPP
As to the kind of experiment: MGL ThermoFluor assay - mutant. It is filed as binding. (In general: Differential scanning fluorimetry follows unfolding on heating by fluorescence.)

The target of experiment [2] is T2, purified wild type MGL (wt-MGLL 6H-11-313) (Homo sapiens, UniProt Q99685).
T2 sequence (Q99685 1-303): T1 sequence (Q99685 1-303 L169S/L176S) with S169L, S176L

In another experiment the target is T3, MGL (Rattus norvegicus, UniProt Q8R431).
T3 construct: one g rat brain was homogenized using a Polytron homogenizer; from tissue; host or cells: rat brain homogenate
T3 sequence (Q8R431 1-303): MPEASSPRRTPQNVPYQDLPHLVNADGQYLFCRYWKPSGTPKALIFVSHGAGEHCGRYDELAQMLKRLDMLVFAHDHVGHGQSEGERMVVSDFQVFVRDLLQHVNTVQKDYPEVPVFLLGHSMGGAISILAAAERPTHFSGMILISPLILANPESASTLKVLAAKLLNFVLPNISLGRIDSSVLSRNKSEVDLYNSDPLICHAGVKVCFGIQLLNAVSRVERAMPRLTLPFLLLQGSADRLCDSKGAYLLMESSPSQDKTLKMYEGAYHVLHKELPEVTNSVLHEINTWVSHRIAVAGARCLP
As to the kind of experiment: 2-AG accumulation assay in rat brain homogenate. It is filed as biochemical. The conditions noted are these: rat brain homogenate; compound 1 μM; 2-AG accumulation as percent of vehicle; read-out: Rat Brain 2AG % VehCntrl (%) @ 1 μM.

The mark [3] stands for this setting: group mean values, read-out: CFA thermal hypersensitivity Method 1: peak % reversal.
Where [4] appears, read: individual animal values, read-out: CFA thermal hypersensitivity Method 2: peak % reversal.
Setting [5] is: ThermoFluor thermal stability binding assay, read-out: MGL mutant ThermoFluor Kd.
[6] abbreviates: ThermoFluor concentration-response, read-out: MGL mutant ThermoFluor Kd.

SMILES strings stand for the structures. Where a chain is given by its changes, count along the chain named. Read-outs that look alike come from different tables or passages of the source. A value given as a limit tells only on which side of the number the result lay.

For the compound `O=C(c1ccccc1)N1CCN(C2CN(C(=O)c3ccc4c(ccn4-c4ccc(C(F)(F)F)cc4)c3)C2)CC1` [Cpd 126, 5-({3-[4-(Phenylcarbonyl)piperazin-1-yl]azetidin-1-yl}carbonyl)-1-[4-(trifluoromethyl)phenyl]-1H-indole], in experiment [1] (setting [3]), the inhibition in vivo at 10 mg/kg worked out at 40.8% and the inhibition in vivo at 30 mg/kg came to 51%. Further, in experiment [1] (setting [4]), the inhibition in vivo at 10 mg/kg was 40.4% and the inhibition in vivo at 30 mg/kg came to 79.5%.
Consider `O=C(c1ccccc1)N1CCN(C2CN(C(=O)c3ccc4c(ccn4-c4ccc(F)cc4)c3)C2)CC1` [Cpd 567, 1-(4-Fluorophenyl)-5-({3-[4-(phenylcarbonyl)piperazin-1-yl]azetidin-1-yl}carbonyl)-1H-indole], for which the inhibition in vivo at 30 mg/kg in experiment [1] (setting [3]) was 63.1%.
Take `O=C(c1nccs1)N1CCN(C2CN(C(=O)c3sc4cc(Br)ccc4c3Cl)C2)CC1` [Cpd 326, 1-{1-[(6-Bromo-3-chloro-1-benzothiophen-2-yl)carbonyl]azetidin-3-3yl}-4-(1,3-thiazol-2-ylcarbonyl)piperazine]: the Kd on mutant MGL (setting [5]) was determined as 0.0004 µM. Also, the inhibition in vivo at 30 mg/kg in experiment [1] (setting [3]) turned out to be 17.3%; in experiment [1] (setting [4]), 17.5%. Besides, the IC50 (usually the concentration that inhibits the measured activity by half) in experiment [2] was less than 5 nM.
For `Cn1cc(-c2ccccc2)c2ccc(C(=O)N3CC(N4CCN(C(=O)c5nccs5)CC4)C3)cc21` [Cpd 1132, 1-Methyl-3-phenyl-6-({3-[4-(1,3-thiazol-2-ylcarbonyl)piperazin-1-yl]azetidin-1-yl}carbonyl)-1H-indole], on mutant MGL (setting [6]), the Kd stood at 0.002 µM. In addition, in experiment [1] (setting [3]), the inhibition in vivo at 30 mg/kg is 0%. In experiment [2], this compound came in with an IC50 of 23 nM.
As for `O=C(c1ccc2c(ccn2-c2ccc(F)cc2)c1)N1CC(N2CCN(C(=O)c3cscn3)CC2)C1` [Cpd 1358, 1-(4-Fluorophenyl)-5-({3-[4-(1,3-thiazol-4-ylcarbonyl)piperazin-1-yl]azetidin-1-yl}carbonyl)-1H-indole], the Kd on mutant MGL (setting [6]) was determined as 0.007 µM. Also, in experiment [1] (setting [3]), the inhibition in vivo at 30 mg/kg was determined as 25.4%. For the same compound, the IC50 in experiment [2] is less than 5 nM.
For the compound `O=C(c1nccs1)N1CCN(C2CN(C(=O)c3sc4cc(C(F)(F)F)ccc4c3F)C2)CC1` [Cpd 895, 1-(1-{[3-Fluoro-6-(trifluoromethyl)-1-benzothiophen-2-yl]carbonyl}azetidin-3-yl)-4-(1,3-thiazol-2-ylcarbonyl)piperazine], in experiment [1] (setting [3]), the inhibition in vivo at 30 mg/kg worked out at 23.4%. Moreover, in experiment [2], the IC50 was less than 5 nM.
For the compound `O=C(c1ccc2nc(-c3ccccc3)oc2c1)N1CC(N2CCN(C(=O)c3nccs3)CC2)C1` [Cpd 318, 2-Phenyl-6-({3-[4-(1,3-thiazol-2-ylcarbonyl)piperazin-1-yl]azetidin-1-yl}carbonyl)-1,3-benzoxazole], in experiment [1] (setting [3]), the inhibition in vivo at 30 mg/kg stood at 44.7%.
In the case of `O=C(c1cscn1)N1CCN(C2CN(C(=O)c3sc4cc(C(F)(F)F)ccc4c3Cl)C2)CC1` [Cpd 335, 1-(1-{[3-Chloro-6-(trifluoromethyl)-1-benzothiophen-2-yl]carbonyl}azetidin-3-yl)-4-(1,3-thiazol-4-ylcarbonyl)piperazine], the inhibition in vivo at 30 mg/kg in experiment [1] (setting [3]) is 108%; in experiment [1] (setting [4]), 135%.
Turning to `O=C(c1ccc2c(ccn2-c2ccc(C(F)(F)F)cc2)c1)N1CC(N2CCN(C(=O)c3nccs3)CC2)C1` [Cpd 1357, 5-({3-[4-(1,3-Thiazol-2-ylcarbonyl)piperazin-1-yl]azetidin-1-yl}carbonyl)-1-[4-(trifluoromethyl)phenyl]-1H-indole], the Kd on mutant MGL (setting [6]) amounted to 0.002 µM. For the same compound, the inhibition in vivo at 30 mg/kg was found to be 51% in experiment [1] (setting [3]) and 46.1% in experiment [1] (setting [4]). In experiment [2], this compound displayed an IC50 of less than 5 nM.
With `O=C(c1ccc2nc(-c3ccccc3)sc2c1)N1CC(N2CCN(C(=O)c3nccs3)CC2)C1` [Cpd 1125, 2-Phenyl-6-({3-[4-(1,3-thiazol-2-ylcarbonyl)piperazin-1-yl]azetidin-1-yl}carbonyl)-1,3-benzothiazole], at mutant MGL (setting [6]), the Kd was found to be 0.037 µM. Also, the values for the inhibition in vivo at 30 mg/kg in experiment [1] (setting [3]) and in experiment [1] (setting [4]) were 64.5% and 90.3%, respectively. This compound also displayed a half-maximal inhibitory concentration (IC50) in experiment [2] of 19 nM.
In the case of `Cc1cn(-c2ccccc2)c2ccc(C(=O)N3CC(N4CCN(C(=O)c5nccs5)CC4)C3)cc12` [Cpd 1054], the Kd on mutant MGL (setting [5]) was found to be 0.001 µM; at mutant MGL (ThermoFluor, compound concentration measured by qNMR, read-out: MGL mutant ThermoFluor qKd (μM) (using qNMR conc.)), 0.001 µM. Also, the inhibition in vivo at 30 mg/kg in experiment [1] (setting [3]) was found to be 27.6%. Also, in experiment [2], the IC50 is 5 nM.
For the compound `O=C(c1ccc2c(ccn2-c2ccc(F)cc2)c1)N1CC(N2CCN(C(=O)c3nccs3)CC2)C1` [Cpd 487, 1-(4-Fluorophenyl)-5-({3-[4-(1,3-thiazol-2-ylcarbonyl)piperazin-1-yl]azetidin-1-yl}carbonyl)-1H-indole], the results for the inhibition in vivo at 30 mg/kg in experiment [1] (setting [3]) and in experiment [1] (setting [4]) were 109% and 166%, respectively.
On to `O=C(c1ccc2c(ccn2-c2ncccn2)c1)N1CC(N2CCN(C(=O)c3nccs3)CC2)C1` [Cpd 1174, 1-Pyrimidin-2-yl-5-({3-[4-(1,3-thiazol-2-ylcarbonyl)piperazin-1-yl]azetidin-1-yl}carbonyl)-1H-indole], for which the Kd on mutant MGL (setting [6]) came to 0.015 µM. Besides, the inhibition in vivo at 30 mg/kg in experiment [1] (setting [3]) came out at 13.6%. The IC50 in experiment [2] was 66 nM.
The corresponding values for `O=C(c1ccc2c(-c3cccc(C(F)(F)F)c3)c[nH]c2c1)N1CC(N2CCN(C(=O)c3nccs3)CC2)C1` [Cpd 1341, 6-({3-[4-(1,3-Thiazol-2-ylcarbonyl)piperazin-1-yl]azetidin-1-yl}carbonyl)-3-[3-(trifluoromethyl)phenyl]-1H-indole] are 0.001 µM, 7.5% and less than 5 nM.
For the compound `O=C(c1ccc2nc(-c3ccccc3)oc2c1)N1CC(N2CCN(C(=O)c3cscn3)CC2)C1` [Cpd 1141, 2-Phenyl-6-({3-[4-(1,3-thiazol-4-ylcarbonyl)piperazin-1-yl]azetidin-1-yl}carbonyl)-1,3-benzoxazole], the inhibition in vivo at 30 mg/kg in experiment [1] (setting [3]) is 5.7%.
Consider `Cc1c(C(=O)N2CC(N3CCN(C(=O)c4nccs4)CC3)C2)sc2cc(C(F)(F)F)ccc12` [Cpd 899, 1-(1-{[3-Methyl-6-(trifluoromethyl)-1-benzothiophen-2-yl]carbonyl}azetidin-3-yl)-4-(1,3-thiazol-2-ylcarbonyl)piperazine], for which the inhibition in vivo at 30 mg/kg in experiment [1] (setting [3]) came to 80.1%. The same compound registered an IC50 in experiment [2] of less than 5 nM.
As to `O=C(c1ccc(-c2cccc(C(F)(F)F)c2)cc1)N1CCN(C2CN(C(=O)c3ccc[nH]3)C2)CC1` [Cpd 1166, 1-[1-(1H-Pyrrol-2-ylcarbonyl)azetidin-3-yl]-4-{[3′-(trifluoromethyl)biphenyl-4-yl]carbonyl}piperazine], the 2-AG accumulation, % of vehicle control at 1 µM on MGL was 176%. Also, the Kd at mutant MGL (setting [6]) was 0.01 µM. This compound registered an IC50 in experiment [2] of 52 nM.
With `O=C(c1ccc2c(-c3ccccc3)c[nH]c2c1)N1CC(N2CCN(C(=O)c3nccs3)CC2)C1` [Cpd 1316], the 2-AG accumulation, % of vehicle control at 1 µM on MGL is 602%. Besides, the Kd at mutant MGL (setting [6]) worked out at 0.002 µM. Further, in experiment [2], the half-inhibitory concentration (IC50) is less than 5 nM.

These data come from patent US8362000B2, “Azetidinyl diamides as monoacylglycerol lipase inhibitors” (Janssen Pharmaceutica NV, priority 2009, dated 2013).
